Data reported in PubChem BioAssay (NCI).
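Following 48 hours of exposure in 96-well plates, responses at five concentrations were used to interpolate endpoints linearly. TGI denotes the concentration required for complete inhibition of growth.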

What was measured:
Assay in all cases: inhibition of tumour cell growth, NCI panel, 48 h
[1] = system: HT29 colon
[2] = system: SF-295 CNS
[3] = system: MCF7 breast
[4] = system: SK-MEL-2 melanoma
[5] = system: UACC-62 melanoma
[6] = system: SW-620 colon
[7] = system: OVCAR-4 ovarian
[8] = system: M14 melanoma
[9] = system: A498 renal
[10] = system: T-47D breast
[11] = system: 786-0 renal
[12] = system: OVCAR-8 ovarian
[13] = system: K-562 leukemia
[14] = system: HL-60(TB) leukemia
[15] = system: HCC-2998 colon
[16] = system: BT-549 breast
[17] = system: NCI-H23 lung
[18] = system: MOLT-4 leukemia
[19] = system: SF-539 CNS
[20] = system: U251 CNS
[21] = system: CCRF-CEM leukemia
[22] = system: SK-OV-3 ovarian
[23] = system: NCI-H460 lung
[24] = system: HCT-15 colon
[25] = system: HOP-62 NSCLC
[26] = system: SR leukemia
[27] = system: UO-31 renal
[28] = system: SK-MEL-28 melanoma
[29] = system: CAKI-1 renal
[30] = system: RPMI-8226 leukemia
[31] = system: LOX IMVI melanoma
[32] = system: A549 NSCLC
[33] = system: SNB-75 CNS
[34] = system: ACHN renal
[35] = system: MDA-N
[36] = system: OVCAR-5 ovarian
[37] = system: SN12C renal
[38] = system: KM12 colon
[39] = system: HOP-92 NSCLC
[40] = system: HCT-116 colon
[41] = system: PC-3 prostate
[42] = system: MDA-MB-231 breast
[43] = system: COLO 205 colon
[44] = system: NCI-H522 lung
[45] = system: MDA-MB-435
[46] = system: TK-10 renal
[47] = system: SF-268 CNS
[48] = system: NCI-H226 lung
[49] = system: MALME-3M melanoma
[50] = system: OVCAR-3 ovarian
[51] = system: SNB-19 CNS
[52] = system: NCI/ADR-RES ovarian
[53] = system: DU-145 prostate
[54] = system: RXF 393 renal
[55] = system: IGROV1 ovarian
[56] = system: EKVX NSCLC
[57] = system: UACC-257 melanoma
[58] = system: HS 578T breast
[59] = system: SK-MEL-5 melanoma

CCN1CCN(c2nc3ccccc3nc2C(=O)c2ccc(OC)c(OC)c2)CC1
TGI [1]: 39.4 µM | TGI [2]: 30 µM | TGI [3]: 45.5 µM | TGI [4]: > 100 µM | TGI [5]: > 100 µM | TGI [6]: > 100 µM | TGI [7]: 25.7 µM | TGI [8]: 31.3 µM | TGI [9]: > 100 µM | TGI [10]: > 100 µM | TGI [11]: 25.7 µM | TGI [12]: 29.9 µM | TGI [13]: 34.1 µM | TGI [14]: > 100 µM | TGI [15]: 9.71 µM | TGI [16]: 65.6 µM | TGI [17]: 98.4 µM | TGI [18]: 30.5 µM | TGI [19]: 3.14 µM | TGI [20]: 30.2 µM | TGI [21]: 46 µM | TGI [22]: 24.5 µM | TGI [23]: 50.2 µM | TGI [24]: 28.8 µM | TGI [25]: > 100 µM | TGI [26]: 24.4 µM | TGI [27]: 47.1 µM | TGI [28]: 27.3 µM | TGI [29]: > 100 µM | TGI [30]: 35.8 µM | TGI [31]: 26.2 µM | TGI [32]: 28.3 µM | TGI [33]: 30.1 µM | TGI [34]: 26.8 µM | TGI [35]: 97.7 µM | TGI [36]: > 100 µM | TGI [37]: > 100 µM | TGI [38]: 53.2 µM | TGI [39]: 70.2 µM | TGI [40]: 19.7 µM | TGI [41]: > 100 µM | TGI [42]: 32 µM | TGI [43]: 2.91 µM | TGI [44]: 27.9 µM | TGI [45]: 90.6 µM | TGI [46]: 87.5 µM | TGI [47]: > 100 µM | TGI [48]: > 100 µM | TGI [49]: 36.5 µM | TGI [50]: 60.6 µM | TGI [51]: 88.2 µM | TGI [52]: 3.39 µM | TGI [53]: > 100 µM | TGI [54]: 29.8 µM | TGI [55]: 32.9 µM | TGI [56]: 57.4 µM | TGI [57]: 46.4 µM

O=S(=O)(O)c1ccc2c(N=Nc3ccc(N=Nc4ccccc4)cc3)c(O)c(S(=O)(=O)O)cc2c1
TGI [1]: > 100 µM | TGI [2]: > 100 µM | TGI [3]: > 100 µM | TGI [58]: > 100 µM | TGI [4]: > 100 µM | TGI [5]: > 100 µM | TGI [6]: > 100 µM | TGI [7]: > 100 µM | TGI [8]: > 100 µM | TGI [10]: > 100 µM | TGI [11]: > 100 µM | TGI [12]: > 100 µM | TGI [13]: > 100 µM | TGI [14]: > 100 µM | TGI [15]: > 100 µM | TGI [16]: > 100 µM | TGI [17]: > 100 µM | TGI [18]: > 100 µM | TGI [19]: > 100 µM | TGI [20]: > 100 µM | TGI [59]: > 100 µM | TGI [21]: > 100 µM | TGI [22]: > 100 µM | TGI [23]: > 100 µM | TGI [24]: > 100 µM | TGI [25]: > 100 µM | TGI [26]: > 100 µM | TGI [27]: > 100 µM | TGI [28]: > 100 µM | TGI [29]: > 100 µM | TGI [30]: > 100 µM | TGI [32]: > 100 µM | TGI [34]: > 100 µM | TGI [35]: > 100 µM | TGI [36]: > 100 µM | TGI [37]: > 100 µM | TGI [38]: > 100 µM | TGI [39]: > 100 µM | TGI [40]: > 100 µM | TGI [41]: > 100 µM | TGI [42]: > 100 µM | TGI [43]: > 100 µM | TGI [44]: > 100 µM | TGI [45]: > 100 µM | TGI [46]: > 100 µM | TGI [47]: > 100 µM | TGI [48]: > 100 µM | TGI [49]: > 100 µM | TGI [50]: > 100 µM | TGI [51]: > 100 µM | TGI [52]: > 100 µM | TGI [53]: > 100 µM | TGI [54]: > 100 µM | TGI [55]: > 100 µM | TGI [56]: > 100 µM | TGI [57]: > 100 µM

CCCCOCOc1ccccc1P1(=O)COc2ccccc2OC1
TGI [1]: > 100 µM | TGI [2]: > 100 µM | TGI [3]: > 100 µM | TGI [58]: > 100 µM | TGI [4]: > 100 µM | TGI [5]: > 100 µM | TGI [6]: > 100 µM | TGI [7]: > 100 µM | TGI [8]: > 100 µM | TGI [10]: > 100 µM | TGI [11]: > 100 µM | TGI [13]: > 100 µM | TGI [14]: > 100 µM | TGI [15]: > 100 µM | TGI [16]: > 100 µM | TGI [17]: > 100 µM | TGI [19]: > 100 µM | TGI [20]: > 100 µM | TGI [59]: > 100 µM | TGI [21]: > 100 µM | TGI [22]: > 100 µM | TGI [23]: > 100 µM | TGI [24]: > 100 µM | TGI [25]: > 100 µM | TGI [26]: > 100 µM | TGI [27]: > 100 µM | TGI [28]: > 100 µM | TGI [29]: > 100 µM | TGI [30]: > 100 µM | TGI [31]: > 100 µM | TGI [32]: > 100 µM | TGI [33]: > 100 µM | TGI [34]: > 100 µM | TGI [35]: > 100 µM | TGI [36]: > 100 µM | TGI [37]: > 100 µM | TGI [38]: > 100 µM | TGI [39]: > 100 µM | TGI [40]: > 100 µM | TGI [41]: > 100 µM | TGI [42]: > 100 µM | TGI [43]: > 100 µM | TGI [45]: > 100 µM | TGI [46]: 94.1 µM | TGI [47]: > 100 µM | TGI [49]: > 100 µM | TGI [50]: > 100 µM | TGI [51]: > 100 µM | TGI [52]: > 100 µM | TGI [53]: > 100 µM | TGI [54]: > 100 µM | TGI [55]: > 100 µM | TGI [56]: > 100 µM | TGI [57]: > 100 µM

COc1cc(COC(=O)N2CC=CC2C(=O)O)c([N+](=O)[O-])cc1OC (stereo not given)
TGI [1]: > 100 µM | TGI [2]: > 100 µM | TGI [3]: > 100 µM | TGI [58]: > 100 µM | TGI [5]: > 100 µM | TGI [6]: > 100 µM | TGI [8]: > 100 µM | TGI [9]: > 100 µM | TGI [10]: > 100 µM | TGI [11]: > 100 µM | TGI [12]: > 100 µM | TGI [13]: > 100 µM | TGI [14]: > 100 µM | TGI [15]: > 100 µM | TGI [16]: > 100 µM | TGI [17]: > 100 µM | TGI [18]: > 100 µM | TGI [19]: > 100 µM | TGI [20]: > 100 µM | TGI [59]: > 100 µM | TGI [21]: > 100 µM | TGI [22]: > 100 µM | TGI [23]: > 100 µM | TGI [24]: > 100 µM | TGI [25]: > 100 µM | TGI [26]: > 100 µM | TGI [27]: > 100 µM | TGI [28]: > 100 µM | TGI [30]: > 100 µM | TGI [32]: > 100 µM | TGI [33]: > 100 µM | TGI [34]: > 100 µM | TGI [35]: > 100 µM | TGI [36]: > 100 µM | TGI [37]: > 100 µM | TGI [38]: > 100 µM | TGI [39]: > 100 µM | TGI [40]: > 100 µM | TGI [41]: > 100 µM | TGI [43]: > 100 µM | TGI [45]: > 100 µM | TGI [46]: > 100 µM | TGI [47]: > 100 µM | TGI [48]: > 100 µM | TGI [49]: > 100 µM | TGI [50]: > 100 µM | TGI [51]: > 100 µM | TGI [52]: > 100 µM | TGI [53]: > 100 µM | TGI [54]: > 100 µM | TGI [55]: > 100 µM | TGI [56]: > 100 µM | TGI [57]: > 100 µM
